Measured values as given in patent US8952024B2, “Herbicidal pyrimidone derivatives” (E I du Pont de Nemours and Company, priority 2009, dated 2015).

How the values were obtained:
Assay in all cases: Test B pre-/postemergence plant response
Assay type in all cases: in vivo
[1] = system: downy bromegrass (Bromus tectorum)
How it was run: (§1)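 Visually scored on a 0 to 100 scale after 13 to 15 days in greenhouse versus controls. Treatments were preemergence on seeded loam/sand soil and postemergence on 1- to 4-leaf plants.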

wild oat (Avena fatua) = system: wild oat (Avena fatua)
How it was run: as §1

[2] = system: Surinam grass (Brachiaria decumbens)
How it was run: as §1

[3] = system: pigweed (Amaranthus retroflexus)
How it was run: as §1

[4] = system: johnsongrass (Sorghum halepense)
How it was run: as §1

[5] = system: morningglory (Ipomoea coccinea)
How it was run: as §1

[6] = system: green foxtail (Setaria viridis)
How it was run: as §1

[7] = system: velvetleaf (Abutilon theophrasti)
How it was run: as §1

[8] = system: lambsquarters (Chenopodium album)
How it was run: as §1

[9] = 62 g ai/ha, postemergence, 0 is no effect, 100 is complete control, 13 to 15 days

Which results are given for `O=C1CCCC(O)=C1C(=O)c1cnc(-c2ccccc2)n(C2CCCCC2)c1=O` [Compound 128, 3-cyclohexyl-5-[(2-hydroxy-6-oxo-1-cyclohexen-1-yl)carbonyl]-2-phenyl-4(3H)-pyrimidinone]?
Bromegrass, Downy plant response rating (0 to 100 scale) [1, 9]: 35; pest or weed control at 31 g/ha ([1]; Bromus tectorum, post-emergence, Postemergence, 31 g ai/ha, 0 to 100 scale (0 no effect, 100 complete control), read-out: Plant response rating, Bromegrass, Downy): 30%; pest or weed control at 125 g/ha ([1]; Bromus tectorum, post-emergence, Postemergence, 125 g ai/ha, scale 0 to 100 (0 no effect, 100 complete control), read-out: Plant response rating, Bromegrass, Downy): 40%; pest or weed control at 250 g/ha ([1]; Bromus tectorum, post-emergence, Postemergence, 250 g ai/ha, scale 0 to 100 (0 no effect, 100 complete control), 13 to 15 days, read-out: Plant response rating, Bromegrass, Downy): 50%; Oat, Wild plant response rating (0 to 100 scale) (wild oat (Avena fatua); [9]): 50; pest or weed control at 31 g/ha (wild oat (Avena fatua); Avena fatua, post-emergence, Postemergence, 31 g ai/ha, 0 to 100 scale (0 no effect, 100 complete control), read-out: Plant response rating, Oat, Wild): 40%; pest or weed control at 125 g/ha (wild oat (Avena fatua); Avena fatua, post-emergence, Postemergence, 125 g ai/ha, scale 0 to 100 (0 no effect, 100 complete control), read-out: Plant response rating, Oat, Wild): 60%; pest or weed control at 250 g/ha (wild oat (Avena fatua); Avena fatua, post-emergence, Postemergence, 250 g ai/ha, scale 0 to 100 (0 no effect, 100 complete control), 13 to 15 days, read-out: Plant response rating, Oat, Wild): 80%; Surinam Grass plant response rating (0 to 100 scale) [2, 9]: 80; pest or weed control at 31 g/ha ([2]; Urochloa decumbens, post-emergence, Postemergence, 31 g ai/ha, 0 to 100 scale (0 no effect, 100 complete control), read-out: Plant response rating, Surinam Grass): 50%; pest or weed control at 125 g/ha ([2]; Urochloa decumbens, post-emergence, Postemergence, 125 g ai/ha, scale 0 to 100 (0 no effect, 100 complete control), read-out: Plant response rating, Surinam Grass): 85%; pest or weed control at 250 g/ha ([2]; Urochloa decumbens, post-emergence, Postemergence, 250 g ai/ha, scale 0 to 100 (0 no effect, 100 complete control), 13 to 15 days, read-out: Plant response rating, Surinam Grass): 85%; Pigweed plant response rating (0 to 100 scale) [3, 9]: 98; pest or weed control at 31 g/ha ([3]; Amaranthus retroflexus, post-emergence, Postemergence, 31 g ai/ha, 0 to 100 scale (0 no effect, 100 complete control), read-out: Plant response rating, Pigweed): 95%; pest or weed control at 125 g/ha ([3]; Amaranthus retroflexus, post-emergence, Postemergence, 125 g ai/ha, scale 0 to 100 (0 no effect, 100 complete control), read-out: Plant response rating, Pigweed): 98%; pest or weed control at 250 g/ha ([3]; Amaranthus retroflexus, post-emergence, Postemergence, 250 g ai/ha, scale 0 to 100 (0 no effect, 100 complete control), 13 to 15 days, read-out: Plant response rating, Pigweed): 100%; Johnsongrass plant response rating (0 to 100 scale) [4, 9]: 70; pest or weed control at 31 g/ha ([4]; Sorghum halepense, post-emergence, Postemergence, 31 g ai/ha, 0 to 100 scale (0 no effect, 100 complete control), read-out: Plant response rating, Johnsongrass): 70%; pest or weed control at 125 g/ha ([4]; Sorghum halepense, post-emergence, Postemergence, 125 g ai/ha, scale 0 to 100 (0 no effect, 100 complete control), read-out: Plant response rating, Johnsongrass): 85%; pest or weed control at 250 g/ha ([4]; Sorghum halepense, post-emergence, Postemergence, 250 g ai/ha, scale 0 to 100 (0 no effect, 100 complete control), 13 to 15 days, read-out: Plant response rating, Johnsongrass): 85%; Morningglory plant response rating (0 to 100 scale) [5, 9]: 80; pest or weed control at 31 g/ha ([5]; Ipomoea, post-emergence, Postemergence, 31 g ai/ha, 0 to 100 scale (0 no effect, 100 complete control), read-out: Plant response rating, Morningglory): 80%; pest or weed control at 125 g/ha ([5]; Ipomoea, post-emergence, Postemergence, 125 g ai/ha, scale 0 to 100 (0 no effect, 100 complete control), read-out: Plant response rating, Morningglory): 90%; pest or weed control at 250 g/ha ([5]; Ipomoea, post-emergence, Postemergence, 250 g ai/ha, scale 0 to 100 (0 no effect, 100 complete control), 13 to 15 days, read-out: Plant response rating, Morningglory): 90%; Foxtail, Green plant response rating (0 to 100 scale) [6, 9]: 95; pest or weed control at 31 g/ha ([6]; Setaria viridis, post-emergence, Postemergence, 31 g ai/ha, 0 to 100 scale (0 no effect, 100 complete control), read-out: Plant response rating, Foxtail, Green): 85%; pest or weed control at 125 g/ha ([6]; Setaria viridis, post-emergence, Postemergence, 125 g ai/ha, scale 0 to 100 (0 no effect, 100 complete control), read-out: Plant response rating, Foxtail, Green): 95%; pest or weed control at 250 g/ha ([6]; Setaria viridis, post-emergence, Postemergence, 250 g ai/ha, scale 0 to 100 (0 no effect, 100 complete control), 13 to 15 days, read-out: Plant response rating, Foxtail, Green): 98%; Velvetleaf plant response rating (0 to 100 scale) [7, 9]: 95; pest or weed control at 31 g/ha ([7]; Abutilon theophrasti, post-emergence, 360 h, Postemergence, 31 g ai/ha, 0 to 100 scale (0 no effect, 100 complete control), read-out: Plant response rating, Velvetleaf): 90%; pest or weed control at 125 g/ha ([7]; Abutilon theophrasti, post-emergence, 360 h, Postemergence, 125 g ai/ha, scale 0 to 100 (0 no effect, 100 complete control), read-out: Plant response rating, Velvetleaf): 95%; pest or weed control at 250 g/ha ([7]; Abutilon theophrasti, post-emergence, 360 h, Postemergence, 250 g ai/ha, scale 0 to 100 (0 no effect, 100 complete control), 13 to 15 days, read-out: Plant response rating, Velvetleaf): 100%; Lambsquarters plant response rating (0 to 100 scale) [8, 9]: 98; pest or weed control at 31 g/ha ([8]; Chenopodium album, post-emergence, Postemergence, 31 g ai/ha, 0 to 100 scale (0 no effect, 100 complete control), read-out: Plant response rating, Lambsquarters): 95%
